Laboratory results published in EP2518500A1, “In vitro method for determining developmental toxicity of a compound” (priority 2011, dated 2012).
Like-named read-outs stand apart in the source and are kept apart here.

Key:
si:rp71-39b20.7 [1] = experiment: Microarray gene expression in zebrafish embryos exposed to compound, si:rp71-39b20.7; conditions: 24 hpf; embryos exposed at BMCGMS20 (PAA equimolar to MAA and EAA); relative to DMSO-exposed control; negative = downregulation, positive = upregulation
vmhc [2] = experiment: Microarray gene expression in zebrafish embryos exposed to compound, vmhc; conditions: 24 hpf; embryos exposed at BMCGMS20 (PAA equimolar to MAA and EAA); relative to DMSO-exposed control; negative = downregulation, positive = upregulation
cyp26a1 [3] = experiment: Microarray gene expression in zebrafish embryos exposed to compound, cyp26a1; conditions: 24 hpf; embryos exposed at BMCGMS20 (PAA equimolar to MAA and EAA); relative to DMSO-exposed control; negative = downregulation, positive = upregulation
hspb12 [4] = experiment: Microarray gene expression in zebrafish embryos exposed to compound, hspb12; conditions: 24 hpf; embryos exposed at BMCGMS20 (PAA equimolar to MAA and EAA); relative to DMSO-exposed control; negative = downregulation, positive = upregulation
zebrafish embryos [5] = experiment: Method of the invention: developmental toxicity from expression of the 4 genes in exposed zebrafish embryos; conditions: for fold ratio (FR) (either up- or downregulated): all 4 genes (cyp26a1, si:rp71-39b20.7, vmhc, hspb12), 24 hpf microarray, compound versus DMSO control
cyp26a1 [6] = conditions: zebrafish (Danio rerio), in vivo, 24 hpf
zebrafish embryos [7] = conditions: zebrafish (Danio rerio), in vivo, 24 hpf
hspb12 [8] = conditions: zebrafish (Danio rerio), in vivo, 24 hpf
vmhc [9] = conditions: zebrafish (Danio rerio), in vivo, 24 hpf
si:rp71-39b20.7 [10] = conditions: zebrafish (Danio rerio), in vivo, 24 hpf
zebrafish embryos [11] = conditions: concentration range, three independent runs, evaluated at 72 hpf; previous study [11]; cited from earlier work

| Structure (SMILES) | Fold ratio (FR) si:rp71-39b20.7 (si:rp71-39b20.7 [1]) | Fold ratio (FR) vmhc (vmhc [2]) | Fold ratio (FR) cyp26a1 (cyp26a1 [3]) | Fold ratio (FR) hspb12 (hspb12 [4]) | fold ratio (FR) (either up- or downregulated) (zebrafish embryos [5]) | Fold ratio (FR) cyp26a1 (cyp26a1 [6]) | fold ratio (FR) (either up- or downregulated) (zebrafish embryos [7]) | Fold ratio (FR) hspb12 (hspb12 [8]) | Fold ratio (FR) vmhc (vmhc [9]) | Fold ratio (FR) si:rp71-39b20.7 (si:rp71-39b20.7 [10]) | effects in the ZET (GMS) (zebrafish embryos [11]) | developmental toxicity classification in the method according to the invention (zebrafish embryos [5]; gene expression in zebrafish embryos, 24 hours after fertilization) |
| --- | --- | --- | --- | --- | --- | --- | --- | --- | --- | --- | --- | --- |
| CC(C1CC1)C(O)(Cn1cncn1)c1ccc(Cl)cc1 (stereo not drawn) [CYP, cyproconazole] | -1.544 | -1.759 | 3.745 | -1.531 | > 1.5 |  |  |  |  |  |  |  |
| CCOCC(=O)O [EAA, ethoxyacetic acid] | -2.183 | -4.629 | 2.648 | -16.913 | > 1.5 |  |  |  |  |  |  |  |
| C[Si](Cn1cncn1)(c1ccc(F)cc1)c1ccc(F)cc1 [FLU, flusilazole] | -1.514 | -1.784 | 3.452 | -2.182 | > 1.5 |  |  |  |  |  |  |  |
| COCC(=O)O [MAA, methoxyacetic acid] |  |  |  |  |  | 1.722 | > 1.5 | -3.449 | -2.946 | -1.996 |  |  |
| O=C(O)COc1ccccc1 [PAA, phenoxyacetic acid] | -1.098 | -1.102 | -1.009 | -1.135 | < 1.2 |  |  |  |  |  | no effects | non-developmentally toxic |
